Experimental findings from patent US8822451B2, “Modulators of ATP-binding cassette transporters” (Vertex Pharmaceuticals Incorporated, priority 2005, dated 2014) are described below.

SMILES strings stand for the structures.

Broadly, the EC50 is the concentration giving half of the maximal effect.

The target of this experiment is T1, […]F508-CFTR (Homo sapiens, UniProt P13569, DEL508-508).
T1 construct: expressed in transfected cells
The experiment is described as follows: Assay results of Table 3: ΔF508-CFTR modulation, membrane potential optical assay (assay format not stated). It counts as cell-based. Conditions: NIH3T3 mouse fibroblasts stably expressing […]F508-CFTR (optical assays); for Efficacy: efficacy range; for EC50: potency range. The gist of the method:
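Two VIPR II FRET voltage-dye formats in ΔF508-CFTR NIH3T3 cells yield EC50 and efficacy. Potentiator mode: 27° C.-corrected cells get compound in Cl⁻-free medium, forskolin 2-10 μM after 22 s (final Cl⁻ 28 mM). Corrector mode: compound 16 h at 37° C., activation with forskolin 10 μM plus genistein 20 μM.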

T1 sequence (P13569 with tags, fused parts or gaps DEL508-508): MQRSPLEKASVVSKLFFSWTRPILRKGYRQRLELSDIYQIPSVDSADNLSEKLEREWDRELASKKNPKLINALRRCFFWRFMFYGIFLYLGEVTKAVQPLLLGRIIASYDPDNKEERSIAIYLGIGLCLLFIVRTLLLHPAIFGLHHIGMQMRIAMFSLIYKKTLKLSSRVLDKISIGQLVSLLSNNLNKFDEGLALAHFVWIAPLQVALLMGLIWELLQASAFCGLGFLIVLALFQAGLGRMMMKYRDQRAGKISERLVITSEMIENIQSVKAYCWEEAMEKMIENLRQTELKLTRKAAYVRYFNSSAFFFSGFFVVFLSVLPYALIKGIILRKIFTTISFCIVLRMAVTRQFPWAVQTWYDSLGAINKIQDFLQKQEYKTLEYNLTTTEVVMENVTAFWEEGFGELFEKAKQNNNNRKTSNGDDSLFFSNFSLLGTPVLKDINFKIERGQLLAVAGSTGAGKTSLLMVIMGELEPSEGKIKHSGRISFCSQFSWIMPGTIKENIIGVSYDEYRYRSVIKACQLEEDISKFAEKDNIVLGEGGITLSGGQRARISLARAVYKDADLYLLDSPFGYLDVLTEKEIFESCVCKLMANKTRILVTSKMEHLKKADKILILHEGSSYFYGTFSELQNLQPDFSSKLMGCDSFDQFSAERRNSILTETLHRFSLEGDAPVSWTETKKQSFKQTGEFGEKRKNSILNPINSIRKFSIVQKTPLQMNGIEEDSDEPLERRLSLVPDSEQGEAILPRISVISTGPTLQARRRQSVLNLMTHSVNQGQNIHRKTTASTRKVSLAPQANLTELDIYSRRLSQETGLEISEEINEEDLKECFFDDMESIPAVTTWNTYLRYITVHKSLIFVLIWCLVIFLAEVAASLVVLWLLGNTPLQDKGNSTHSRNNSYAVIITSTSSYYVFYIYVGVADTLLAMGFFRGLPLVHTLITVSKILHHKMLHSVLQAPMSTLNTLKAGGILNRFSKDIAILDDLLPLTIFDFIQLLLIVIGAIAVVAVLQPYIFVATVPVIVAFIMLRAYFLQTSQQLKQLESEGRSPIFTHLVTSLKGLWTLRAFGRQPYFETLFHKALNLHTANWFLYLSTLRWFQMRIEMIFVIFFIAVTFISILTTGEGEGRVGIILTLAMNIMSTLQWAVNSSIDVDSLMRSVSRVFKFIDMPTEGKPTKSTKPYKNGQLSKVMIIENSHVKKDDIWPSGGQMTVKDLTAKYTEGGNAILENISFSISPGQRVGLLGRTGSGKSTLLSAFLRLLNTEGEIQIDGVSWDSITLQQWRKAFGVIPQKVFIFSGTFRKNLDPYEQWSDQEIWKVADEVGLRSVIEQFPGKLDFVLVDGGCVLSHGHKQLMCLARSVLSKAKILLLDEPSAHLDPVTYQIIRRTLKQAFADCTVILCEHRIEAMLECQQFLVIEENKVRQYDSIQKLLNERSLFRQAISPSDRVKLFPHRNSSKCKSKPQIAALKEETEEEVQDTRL

As to `Cc1ccccc1-c1cc(C(N)=O)nc(N2CCCCC2)n1` [Compound 114], the Efficacy result is given as “+++ (+++ corresponds to Efficacy greater than 100)” and the EC50 lay in the range of 1 to 5 µM.
In the case of `COc1ccc(Cl)cc1-c1cc(C(N)=O)nc(N2CCCCC2)n1` [Compound 115], the Efficacy result was “++ (++ corresponds to Efficacy between 100 and 50)”; the EC50 fell in the range of 1 to 5 µM.
For the molecule `CCc1ccc(-c2cc(C(N)=O)nc(N(CC)CC)n2)cc1` [Compound 116], the Efficacy entry was “+++ (+++ corresponds to Efficacy greater than 100)” and the EC50 was in the range of 1 to 5 µM.
Regarding `CCN(CC)c1nc(C(=O)N(C)C)cc(-c2ccccc2)n1` [Compound 117], the Efficacy entry is “+++ (+++ corresponds to Efficacy greater than 100)” and the EC50 was more than 5 µM.
In the case of `CCCCN(CCC)c1nc(C(N)=O)cc(-c2ccccc2)n1` [Compound 118], the Efficacy result was “++ (++ corresponds to Efficacy between 100 and 50)”; the concentration giving a half-maximal response (EC50) is less than 1 µM.
With `CCN(CC)c1nc(C(N)=O)cc(-c2ccccc2)n1` [Compound 119], the Efficacy result is given as “+++ (+++ corresponds to Efficacy greater than 100)” and the EC50 is less than 1 µM.
On to `CCN(CC)c1nc(C(N)=O)cc(-c2cccc(C)c2C)n1` [Compound 120], for which the Efficacy result is “++ (++ corresponds to Efficacy between 100 and 50)”; the EC50 was less than 1 µM.
In the case of `CCCCN(CC)c1nc(C(N)=O)cc(-c2ccccc2)n1` [Compound 121], the Efficacy entry is listed as “+++ (+++ corresponds to Efficacy greater than 100)” and the EC50 lay within 1 to 5 µM.
For `NC(=O)c1cc(-c2cccc(F)c2)nc(N2CCCCC2)n1` [Compound 122], the Efficacy entry is “+++ (+++ corresponds to Efficacy greater than 100)” and the EC50 was more than 5 µM.
`CCN(CCO)c1nc(C(N)=O)cc(-c2cccc(OC)c2)n1` [Compound 123]: the Efficacy result is listed as “+ (+ corresponds to Efficacy less than 50)” and the EC50 is more than 5 µM.
`COc1ccc(-c2cc(C(N)=O)nc(N3CCCCC3)n2)cc1OC` [Compound 124]: the Efficacy result is given as “+++ (+++ corresponds to Efficacy greater than 100)” and the concentration for a half-maximal effect (EC50) was 1 to 5 µM.
Consider `CCN(CC)c1nc(C(N)=O)cc(-c2c(F)cccc2F)n1` [Compound 125], for which the Efficacy entry was “++ (++ corresponds to Efficacy between 100 and 50)”; the EC50 is less than 1 µM.
Turning to `NC(=O)c1cc(-c2ccccc2)nc(NCc2ccccc2)n1` [Compound 126], the Efficacy result was “++ (++ corresponds to Efficacy between 100 and 50)”; the concentration giving a half-maximal response (EC50) is more than 5 µM.
Consider `CCOc1ccccc1-c1cc(C(N)=O)nc(N2CCCCC2)n1` [Compound 127], for which the Efficacy entry is “++ (++ corresponds to Efficacy between 100 and 50)”; the EC50 is 1 to 5 µM.
In the case of `CN(C)C(=O)c1cc(-c2ccccc2)nc(NCc2ccco2)n1` [Compound 128], the Efficacy result was “+ (+ corresponds to Efficacy less than 50)” and the EC50 was more than 5 µM.
Regarding `COc1ccc(-c2cc(C(N)=O)nc(N3CC=CCC3)n2)cc1` [Compound 129], the Efficacy entry was “++ (++ corresponds to Efficacy between 100 and 50)”; the EC50 was more than 5 µM.
Turning to `N#Cc1ccc(-c2cc(C(N)=O)nc(N3CCCCC3)n2)cc1` [Compound 130], the Efficacy result is recorded as “+ (+ corresponds to Efficacy less than 50)” and the concentration for a half-maximal effect (EC50) is more than 5 µM.
On to `CCN(CC)c1nc(C(N)=O)cc(-c2ccc(F)c(C)c2)n1` [Compound 131], for which the Efficacy entry is recorded as “+++ (+++ corresponds to Efficacy greater than 100)” and the EC50 fell in the range of 1 to 5 µM.
On to `COc1ccc(C2(CNc3nc(C(N)=O)cc(-c4ccccc4)n3)CC2)cc1OC` [Compound 132], for which the Efficacy entry is on record as “+++ (+++ corresponds to Efficacy greater than 100)” and the concentration giving a half-maximal response (EC50) was more than 5 µM.
As for `CCN(CC)c1nc(C(N)=O)cc(-c2cc(F)ccc2OC)n1` [Compound 133], the Efficacy result was “++ (++ corresponds to Efficacy between 100 and 50)”; the EC50 is less than 1 µM.
As to `CC1CN(c2nc(C(N)=O)cc(-c3ccccc3)n2)CC(C)O1` (centres unmarked) [Compound 134], the Efficacy result is “++ (++ corresponds to Efficacy between 100 and 50)”; the concentration giving a half-maximal response (EC50) is more than 5 µM.
In the case of `COc1ccccc1-c1cc(C(N)=O)nc(N2CC=CCC2)n1` [Compound 135], the Efficacy entry is “++ (++ corresponds to Efficacy between 100 and 50)”; the EC50 was more than 5 µM.
Consider `NC(=O)c1cc(-c2ccccc2)nc(CC2CCCCC2)n1` [Compound 136], for which the Efficacy entry was “++ (++ corresponds to Efficacy between 100 and 50)”; the EC50 was more than 5 µM.
For `COc1ccc(F)cc1-c1cc(C(N)=O)nc(N2CCCCC2)n1` [Compound 137], the Efficacy entry was “++ (++ corresponds to Efficacy between 100 and 50)”; the EC50 was in the range of 1 to 5 µM.
Turning to `CCNc1nc(C(N)=O)cc(-c2cccc(OC)c2)n1` [Compound 138], the Efficacy result was “++ (++ corresponds to Efficacy between 100 and 50)”; the concentration giving a half-maximal response (EC50) was more than 5 µM.
In the case of `NC(=O)c1cc(-c2ccccc2)nc(N2CCC(n3c(=O)[nH]c4ccccc43)CC2)n1` [Compound 139], the Efficacy entry was “++ (++ corresponds to Efficacy between 100 and 50)”; the EC50 is more than 5 µM.
Consider `NC(=O)c1cc(-c2ccc(Cl)c(Cl)c2)nc(N2CCCCC2)n1` [Compound 140], for which the Efficacy entry was “++ (++ corresponds to Efficacy between 100 and 50)”; the EC50 was 1 to 5 µM.
As to `CCN(CC)C(=O)c1cc(-c2ccccc2)nc(N(CC)CC)n1` [Compound 141], the Efficacy entry is “++ (++ corresponds to Efficacy between 100 and 50)”; the EC50 was in the range of 1 to 5 µM.
With `COc1ccc(-c2cc(C(N)=O)nc(N3CCCCC3)n2)cc1` [Compound 142], the Efficacy entry is “++ (++ corresponds to Efficacy between 100 and 50)”; the EC50 was more than 5 µM.
Take `NC(=O)c1cc(-c2ccccc2)nc(N2CCC(O)(Cc3ccccc3)CC2)n1` [Compound 143]: the Efficacy entry is reported as “+ (+ corresponds to Efficacy less than 50)” and the EC50 was more than 5 µM.
For `NC(=O)c1cc(-c2csc3ccccc23)nc(N2CCCCC2)n1` [Compound 144], the Efficacy entry was “++ (++ corresponds to Efficacy between 100 and 50)”; the 50% effective concentration (EC50) is more than 5 µM.
Turning to `C#CCNc1nc(C(N)=O)cc(-c2cccc(OC)c2)n1` [Compound 145], the Efficacy result was “++ (++ corresponds to Efficacy between 100 and 50)”; the EC50 is more than 5 µM.
Regarding `NC(=O)c1cc(-c2ccccc2Oc2ccccc2)nc(N2CCCCC2)n1` [Compound 146], the Efficacy result is listed as “+++ (+++ corresponds to Efficacy greater than 100)” and the EC50 lay within 1 to 5 µM.
Turning to `CCN(CC)c1nc(C(N)=O)cc(-c2ccc(Cl)cc2)n1` [Compound 147], the Efficacy entry is “++ (++ corresponds to Efficacy between 100 and 50)”; the concentration giving a half-maximal response (EC50) is less than 1 µM.
For the molecule `NC(=O)c1cc(-c2ccccc2)nc(N2CCC3CCCCC3C2)n1` (centres unmarked) [Compound 148], the Efficacy entry was “++ (++ corresponds to Efficacy between 100 and 50)”; the EC50 fell in the range of 1 to 5 µM.
Regarding `CC1CCCN(c2nc(C(N)=O)cc(-c3ccccc3)n2)C1` (centres unmarked) [Compound 149], the Efficacy entry was “++ (++ corresponds to Efficacy between 100 and 50)”; the concentration giving a half-maximal response (EC50) was more than 5 µM.
With `CCCN(CC1CC1)c1nc(C(=O)N(C)C)cc(-c2ccccc2)n1` [Compound 150], the Efficacy result is “++ (++ corresponds to Efficacy between 100 and 50)”; the EC50 lay in the range of 1 to 5 µM.
